Our source for the IC50 values is US20040248953A1, “3-Arylsulfanyl and 3-heteroarylsulfanyl substituted benzo[b]thiophenes as therapeutic agents” (priority 2003, published 2004).

T1 sequence (P48736 whole entry, species assumed): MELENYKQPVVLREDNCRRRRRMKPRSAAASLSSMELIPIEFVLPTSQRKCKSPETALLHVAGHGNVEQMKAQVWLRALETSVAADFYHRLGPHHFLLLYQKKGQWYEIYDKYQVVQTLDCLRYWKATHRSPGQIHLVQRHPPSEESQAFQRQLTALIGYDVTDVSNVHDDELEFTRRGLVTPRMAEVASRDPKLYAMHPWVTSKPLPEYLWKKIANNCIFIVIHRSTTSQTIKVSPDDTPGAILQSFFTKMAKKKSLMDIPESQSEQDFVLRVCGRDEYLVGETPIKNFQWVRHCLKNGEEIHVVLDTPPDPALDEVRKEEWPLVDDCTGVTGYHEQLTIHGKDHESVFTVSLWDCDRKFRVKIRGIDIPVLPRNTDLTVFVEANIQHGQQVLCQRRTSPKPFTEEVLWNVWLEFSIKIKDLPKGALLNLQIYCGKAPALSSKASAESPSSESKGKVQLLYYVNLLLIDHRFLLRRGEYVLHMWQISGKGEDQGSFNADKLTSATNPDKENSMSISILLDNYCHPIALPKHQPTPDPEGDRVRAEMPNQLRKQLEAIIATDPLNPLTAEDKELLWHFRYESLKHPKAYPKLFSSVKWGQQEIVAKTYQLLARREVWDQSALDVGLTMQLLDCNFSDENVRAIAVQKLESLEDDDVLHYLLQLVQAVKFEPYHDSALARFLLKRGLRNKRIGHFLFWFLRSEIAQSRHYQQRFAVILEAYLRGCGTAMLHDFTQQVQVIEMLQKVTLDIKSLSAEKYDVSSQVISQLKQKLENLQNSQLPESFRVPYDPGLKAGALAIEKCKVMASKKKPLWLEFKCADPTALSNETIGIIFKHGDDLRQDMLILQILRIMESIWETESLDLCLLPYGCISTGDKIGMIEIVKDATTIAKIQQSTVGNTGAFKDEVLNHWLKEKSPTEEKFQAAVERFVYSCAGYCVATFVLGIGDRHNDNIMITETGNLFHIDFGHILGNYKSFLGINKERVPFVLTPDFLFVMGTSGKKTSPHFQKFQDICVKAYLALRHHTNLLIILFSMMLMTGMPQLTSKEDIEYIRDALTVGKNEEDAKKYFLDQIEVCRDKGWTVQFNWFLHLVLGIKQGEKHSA
T1 sequence (Q8WYR1 whole entry partner, species assumed): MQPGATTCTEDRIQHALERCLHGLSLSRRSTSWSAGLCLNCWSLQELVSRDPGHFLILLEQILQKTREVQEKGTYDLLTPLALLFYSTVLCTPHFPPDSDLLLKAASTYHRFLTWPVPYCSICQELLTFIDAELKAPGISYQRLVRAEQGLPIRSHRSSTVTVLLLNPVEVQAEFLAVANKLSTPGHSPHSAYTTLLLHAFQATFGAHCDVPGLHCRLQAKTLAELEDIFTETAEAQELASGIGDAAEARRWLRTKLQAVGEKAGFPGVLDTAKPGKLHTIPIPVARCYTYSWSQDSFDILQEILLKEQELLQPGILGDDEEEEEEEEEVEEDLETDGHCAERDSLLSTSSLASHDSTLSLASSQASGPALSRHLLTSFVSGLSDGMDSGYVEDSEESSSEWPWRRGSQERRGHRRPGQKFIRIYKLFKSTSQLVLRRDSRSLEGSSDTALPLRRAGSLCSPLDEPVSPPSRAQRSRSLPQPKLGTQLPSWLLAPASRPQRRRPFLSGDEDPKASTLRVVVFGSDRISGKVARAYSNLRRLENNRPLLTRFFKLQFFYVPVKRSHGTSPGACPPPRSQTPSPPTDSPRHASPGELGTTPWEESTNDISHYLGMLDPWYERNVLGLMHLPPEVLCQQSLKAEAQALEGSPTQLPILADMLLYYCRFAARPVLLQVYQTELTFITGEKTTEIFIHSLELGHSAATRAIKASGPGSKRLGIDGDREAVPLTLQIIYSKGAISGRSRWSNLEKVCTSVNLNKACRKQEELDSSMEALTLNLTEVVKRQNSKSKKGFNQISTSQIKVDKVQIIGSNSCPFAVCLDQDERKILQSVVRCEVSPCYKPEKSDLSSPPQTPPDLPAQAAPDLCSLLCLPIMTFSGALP

The test addresses T1, PI3Kγ (Homo sapiens, UniProt P48736).
T1 construct: HA; made in house; host or cells: Spodoptera frugiperda (Sf9) cells, baculovirus coinfection
The test can be described thus: PI3Kγ in vitro kinase assay (32P-ATP, PIP2 lipid micelles, filter plate). The class given is biochemical. To be noted: purified recombinant p101/p110γ protein with G protein β1/γ2 subunits; 20 μM ATP; 25 μM PIP2; 20 minutes at room temperature. As for the experimental part:
Spodtera frugiperda cells, grown in ESF921 media, were coinfected with baculovirus expressing a glu-tagged p101 and baculovirus expressing an HA-tagged p110γ, at a 3:1 ratio of p101 baculovirus to p110γ baculovirus. Sf9 cells were grown to 1×10^7 total cells/mL in 10 L bioreactors and harvested 48-72 hours post infection. Samples of infected cells were then tested for expression of p101/p110γ PI3 kinase by immunoprecipitation and Western Blot analysis methods (see below). To purify PI3Kγ, 4 volumes of room temperature hypotonic lysis buffer (1 mM MgCl2, 1 mM DTT, 5 mM EGTA, 1 mM Pefabloc, 0.5 μM aprotinin, 5 μM leupeptin, 2 μM pepstatin, 5 μM E64, pH 8) per gram of cell paste, was poured onto frozen cell pellets with stirring, then lysed in a nitrogen “bomb” at 400 psi (599HC […], Parr Instrument Co, Moline, Ill.). NaCl was added to 150 mM, and sodium cholate was added to 1% and mixed for another 45 minutes. The lysates were clarified by centrifugation for 25 minutes at 14,000 rpm. The lysates were then loaded over anti-glu-linked Protein-G Sepaharose beads (Covance Research Products, Richmond, Calif.) using 20 mL resin/50 g cell paste. The column was washed with 15 volumes of wash buffer (1 mM DTT, 0.2 mM EGTA, 1 mM Pefabloc, 0.5 μM aprotinin, 5 μM leupeptin, 2 μM pepstatin, 5 μM E64, 150 mM NaCl, 1% sodium cholate, pH 8). PI3Kγ was eluted with 6 column volumes of wash buffer that contain 100 μg/mL of a peptide that competes for binding of the glu tag. The column fractions with the eluted protein (determined by taking OD280 readings) were collected and dialyzed in 0.2 mM EGTA, 1 mM DTT, 1 mM Pefabloc, 5 μM leupeptin, 0.5% sodium cholate, 150 mM NaCl, and 50% glycerol, pH 8. The fractions were stored at -80° C. until further use. Spodtera frugiperda cells were coinfected with baculovirus expressing a glu-tagged G protein β1 and baculovirus expressing a […], at a 1:1 ratio of glu-tagged G protein β1 baculovirus to G protein β2 baculovirus. Sf9 cells are grown in 10 L bioreactors and harvested 48-72 hours post infection. Samples of infected cells were tested for G protein β1/β2 expression by Western Blot analysis, as described below. Cell lysates were homogenized and loaded onto a column of glu-tagged beads as in Biological Example 1 and competed off the column with a glu peptide and processed as described in Biological Example 1. The inhibitory properties of the compounds in Table 1 were assayed in an in vitro PI3K assay. In a 96-well polypropylene plate, each well was spotted with […] of 50 times the desired final concentration of compound in DMSO. Purified recombinant p101/p110γ protein (0.03 μg; 2.7 nM) and G protein β1/γ2 subunits (0.09 μg; 57.7 nM) for each reaction was combined in the assay buffer (30 mM HEPES, 100 mM NaCl, 1 mM EGTA, and 1 mM DTT). ATP and [γ-^32P-ATP] (0.09 μCi) were added to this mixture so that the final ATP concentration in the reaction was 20 μM. Lipid micelles were formed by sonicating phosphatidylinositol4,5-diphosphate (PIP2), phosphatidylethanolamine (PE), and Na-cholate in the assay buffer for 10 minutes, adding MgCl2 and incubating on ice for 20 minutes, for final concentrations of 25 μM PIP2, 300 μM PE, 0.02% Na-cholate, and 10 mM MgCl2 in the reaction. The reactions were started by adding equal volumes lipid and enzyme mixture in a total volume of 50 μL, allowed to run for 20 minutes at room temperature, and stopped with 100 μL 75 mM H3PO4. The lipid product was transferred to a glass fiber filter plate and washed with 75 mM H3PO4 several times. The presence of radioactive lipid product (PIP3) was measured by adding Wallac Optiphase mix to each well and counting in a Wallac 1450 Trilux plate reader (PerkinElmer Life Sciences Inc., Boston, Mass. 02118). The IC50 for each compound tested is reported in μM in Table 1: […]
What is called IC50 is the point on the concentration scale where inhibition reaches its midpoint. For `COc1cc2sc(C(=O)Nc3nnn[nH]3)c(Sc3ccc(C)c(C)c3)c2cc1OC` [Example 11, 3-(3,4-dimethyl-phenylsulfanyl)-5,6-dimethoxy-benzo[b]thiophene-2-carboxylic acid(1H-tetrazol-5-yl)-amide], the IC50 was 2.07 µM. To `COc1cc2sc(C(=O)Nc3nnn[nH]3)c(Sc3ccc(Cl)c(Cl)c3)c2cc1OC` [Example 12, 3-(3,4-dichloro-phenylsulfanyl)-5,6-dimethoxy-benzo[b]thiophene-2-carboxylic acid(1H-tetrazol-5-yl)-amide] belongs 1.23 µM; to `COc1cc(Sc2c(C(=O)Nc3nnn[nH]3)sc3cc(OC)c(OC)cc23)ccc1O` [Example 14, 3-(4-hydroxy-3-methoxy-phenylsulfanyl)-5,6-dimethoxy-benzo[b]thiophene-2-carboxylic acid(1H-tetrazol-5-yl)-amide], 2.31 µM; to `COc1ccc(OC)c(Sc2c(C(=O)Nc3nnn[nH]3)sc3cc(OC)c(OC)cc23)c1` [Example 15, 3-(2,5-dimethoxy-phenylsulfanyl)-5,6-dimethoxy-benzo[b]thiophene-2-carboxylic acid(1H-tetrazol-5-yl)-amide], 0.62 µM.

On to `COc1ccc2sc(C(=O)Nc3nnn[nH]3)c(Sc3ccccc3)c2c1` [Example 17, 5-methoxy-3-phenylsulfanyl-benzo[b]thiophene-2-carboxylic acid(1H-tetrazol-5-yl)-amide], for which the IC50 was found to be 2.65 µM. With `COc1ccc2sc(C(=O)Nc3nnn[nH]3)c(Sc3ccccc3C)c2c1` [Example 18, 5-methoxy-3-o-tolysulfanyl-benzo[b]thiophene-2-carboxylic acid (1H-tetrazol-5-yl)-amide], the IC50 amounted to 0.47 µM.

For `COc1ccc2sc(C(=O)Nc3nnn[nH]3)c(Sc3ccccc3Cl)c2c1` [Example 19, 3-(2-chloro-phenylsulfanyl)-5-methoxy-benzo[b]thiophene-2-carboxylic acid(1H-tetrazol-5-yl)-amide], the IC50 is 2.22 µM. On to `COc1ccc2sc(C(=O)Nc3nnn[nH]3)c(Sc3ccccc3Br)c2c1` [Example 20, 3-(2-bromo-phenylsulfanyl)-5-methoxy-benzo[b]thiophene-2-carboxylic acid(1H-tetrazol-5-yl)-amide], for which the IC50 turned out to be 2.92 µM. Then `COc1ccc2sc(C(=O)Nc3nnn[nH]3)c(Sc3cccc(Cl)c3)c2c1` [Example 21, 3-(3-chloro-phenylsulfanyl)-5-methoxy-benzo[b]thiophene-2-carboxylic acid(1H-tetrazol-5-yl)-amide], with 4.31 µM. To `COc1cccc(Sc2c(C(=O)Nc3nnn[nH]3)sc3ccc(OC)cc23)c1` [Example 22, 5-methoxy-3-(3methoxyphenylsulfanyl)-benzo[b]thiophene-2-carboxylic acid(1H-tetrazol-5-yl)-amide] belongs 2.93 µM. Then `COc1ccc2sc(C(=O)Nc3nnn[nH]3)c(Sc3ccc(Cl)cc3)c2c1` [Example 23, 3-(4-chloro-phenylsulfanyl)-5-methoxy-benzo[b]thiophene-2-carboxylic acid(1H-tetrazol-5-yl)-amide], with 4.93 µM.

As to `COc1ccc(OC)c(Sc2c(C(=O)Nc3nnn[nH]3)sc3ccc(OC)cc23)c1` [Example 24, 3-(2,5-dimethoxy-phenylsulfanyl)-5-methoxy-benzo[b]thiophene-2-carboxylic acid(1H-tetrazol-5-yl)-amide], the 50% inhibitory concentration (IC50) was determined as 1.22 µM. To `COc1ccc2sc(C(=O)Nc3nnn[nH]3)c(SCCc3ccccc3)c2c1` [Example 26, 5-methoxy-3-phenethylsulfanyl-benzo[b]thiophene-2-carboxylic acid(1H-tetrazol-5-yl)-amide] belongs 1.6 µM; to `COc1ccc2sc(C(=O)Nc3nnn[nH]3)c(Sc3ccc4c(c3)OCO4)c2c1` [Example 27, 3-(benzo[1,3]dioxol-5-ylsulfanyl)-5-methoxy-benzo[b]thiophene-2-carboxylic acid(1H-tetrazol-5-yl)-amide], 1.69 µM; to `COc1cc2sc(C(=O)Nc3nnn[nH]3)c(Sc3ccc(O)cc3)c2cc1OC` [Example 28, 3-(4-hydroxy-phenylsulfanyl)-5,6-dimethoxy-benzo[b]thiophene-2-carboxylic acid(1H-tetrazol-5-yl)-amide], 1.84 µM.

On to `COc1cc2sc(C(=O)Nc3nnn[nH]3)c(Sc3ccoc3C)c2cc1OC` [Example 29, 5,6-dimethoxy-3-(2-methyl-furan-3-ylsulfanyl)-benzo[b]thiophene-2-carboxylic acid(1H-tetrazol-5-yl)-amide], for which the concentration for half-maximal inhibition (IC50) was determined as 2.16 µM.

With `COc1cc2c(Sc3ccc(O)cc3)c(C(=O)Nc3nnn[nH]3)sc2cc1C` [Example 30, 3-(4-Hydroxy-phenylsulfanyl)-5-methoxy-6-methyl-benzo[b]thiophene-2-carboxylic acid(1H-tetrazol-5-yl)-amide], the half-maximal inhibitory concentration (IC50) was 0.625 µM. `COC(=O)Cc1ccc(Sc2c(C(=O)Nc3nnn[nH]3)sc3cc(C)c(OC)cc23)cc1` [Example 31, {4-[5-Methoxy-6-methyl-2-(1H-tetrazol-5-ylcarbamoyl)-benzo[b]thiophen-3-ylsulfanyl]-phenyl}-acetic acid methyl ester]: the IC50 was 3.96 µM.

Turning to `COC(=O)CCc1ccc(Sc2c(C(=O)Nc3nnn[nH]3)sc3cc(C)c(OC)cc23)cc1` [Example 32, 3-{4-[5-Methoxy-6-methyl-2-(1H-tetrazol-5-ylcarbamoyl)-benzo[b]thiophen-3-ylsulfanyl]-phenyl}-propionic acid methyl ester], the half-inhibitory concentration (IC50) stood at 4.53 µM. To `COc1cccc(Sc2c(C(=O)Nc3nnn[nH]3)sc3cc(C)c(OC)cc23)c1` [Example 34, 5-Methoxy-3-(3-methoxy-phenylsulfanyl)-6-methyl-benzo[b]thiophene-2-carboxylic acid(1H-tetrazol-5-yl)-amide] belongs 0.207 µM; to `COc1cc2c(Sc3ccc(C(C)C)cc3)c(C(=O)Nc3nnn[nH]3)sc2cc1C` [Example 35, 3-(4-Isopropyl-phenylsulfanyl)-5-methoxy-6-methyl-benzo[b]thiophene-2-carboxylic acid(1H-tetrazol-5-yl)-amide], 0.37 µM; to `COc1cc2sc(C(=O)Nc3nnn[nH]3)c(Sc3cccc(O)c3)c2cc1OC` [Example 36, 3-(3-Hydroxy-phenylsulfanyl)-5,6-dimethoxy-benzo[b]thiophenes-2-carboxylic acid(1H-tetrazol-5-yl)-amide], 1.88 µM.

For the compound `COc1ccc(Sc2c(C(=O)Nc3nnn[nH]3)sc3cc(C)c(OC)cc23)cc1` [Example 37, 5-Methoxy-3-(4-methoxy-phenylsulfanyl)-6-methyl-benzo[b]thiophene-2-carboxylic acid(1H-tetrazol-5-yl)-amide], the half-inhibitory concentration (IC50) amounted to 0.808 µM. To `COc1cc2sc(C(=O)Nc3nnn[nH]3)c(Sc3ccc(O)cc3)c2cc1C` [Example 38, 3-(4-Hydroxy-phenylsulfanyl)-6-methoxy-5-methyl-benzo[b]thiophene-2-carboxylic acid(1H-tetrazol-5-yl)-amide] belongs 0.885 µM; to `COc1cc2sc(C(=O)Nc3nnn[nH]3)c(Sc3cccc(O)c3)c2cc1C` [Example 39, 3-(3-Hydroxy-phenylsulfanyl)-6-methoxy-5-methyl-benzo[b]thiophene-2-carboxylic acid(1H-tetrazol-5-yl)-amide], 0.98 µM.
